# Literature values as cited in patent US6514531B1, “Controlled-release dosage forms comprising zolpidem or a salt thereof” (Sanofi-Synthelabo, priority 1998, dated 2003).
smiles,measurement,setting,value
Cc1ccc(-c2nc3ccc(C)cn3c2CC(=O)N(C)C)cc1 [zolpidem],kinetics in the therapeutical dose range,between 5 and 10 mg in conventional forms,linear kinetics
same,duration of action,"hypnotic action, oral, conventional forms",up to 6 hours
